Values of other authors, collected in PMC9851200, “Multiparameter phenotypic screening for endogenous TFEB and TFE3 translocation identifies novel chemical series modulating lysosome function” (Autophagy, 2022).

How the values were obtained:
Set-up in all cases: method as in original PKIS2 published data
[1] = target: T1, kinases (KINOMEscan panel) (Homo sapiens, UniProt O00141); settings: kinase SGK1; Published KINOMEscan; ref original PKIS2 published data; cited from earlier work
T1 sequence (O00141 1-431): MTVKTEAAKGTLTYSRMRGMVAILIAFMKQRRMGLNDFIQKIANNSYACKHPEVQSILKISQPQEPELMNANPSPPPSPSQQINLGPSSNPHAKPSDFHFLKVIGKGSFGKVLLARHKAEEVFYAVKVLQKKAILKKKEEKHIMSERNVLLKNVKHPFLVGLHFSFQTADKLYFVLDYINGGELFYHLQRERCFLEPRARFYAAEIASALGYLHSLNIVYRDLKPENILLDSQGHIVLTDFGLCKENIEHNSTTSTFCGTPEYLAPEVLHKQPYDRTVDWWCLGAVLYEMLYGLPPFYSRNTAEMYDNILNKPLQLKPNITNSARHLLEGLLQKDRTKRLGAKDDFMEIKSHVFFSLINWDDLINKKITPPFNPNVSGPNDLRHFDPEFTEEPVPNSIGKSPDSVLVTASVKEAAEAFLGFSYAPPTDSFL

[2] = target: kinases (KINOMEscan panel) (Homo sapiens, UniProt O00750); settings: PIK3C2B; Published KINOMEscan; ref original PKIS2 published data; cited from earlier work
[3] = target: kinases (KINOMEscan panel) (Homo sapiens, UniProt O96013); settings: PAK4; Published KINOMEscan; ref original PKIS2 published data; cited from earlier work
[4] = target: kinases (KINOMEscan panel) (Homo sapiens, UniProt P24723); settings: kinase PRKCH; Published KINOMEscan; ref original PKIS2 published data; cited from earlier work
[5] = target: kinases (KINOMEscan panel) (Homo sapiens, UniProt Q04912); settings: MST1R; Published KINOMEscan; ref original PKIS2 published data; cited from earlier work
[6] = target: T2, kinases (KINOMEscan panel) (Homo sapiens, UniProt Q13237); settings: PRKG2; Published KINOMEscan; ref original PKIS2 published data; cited from earlier work
T2 sequence (Q13237 1-762): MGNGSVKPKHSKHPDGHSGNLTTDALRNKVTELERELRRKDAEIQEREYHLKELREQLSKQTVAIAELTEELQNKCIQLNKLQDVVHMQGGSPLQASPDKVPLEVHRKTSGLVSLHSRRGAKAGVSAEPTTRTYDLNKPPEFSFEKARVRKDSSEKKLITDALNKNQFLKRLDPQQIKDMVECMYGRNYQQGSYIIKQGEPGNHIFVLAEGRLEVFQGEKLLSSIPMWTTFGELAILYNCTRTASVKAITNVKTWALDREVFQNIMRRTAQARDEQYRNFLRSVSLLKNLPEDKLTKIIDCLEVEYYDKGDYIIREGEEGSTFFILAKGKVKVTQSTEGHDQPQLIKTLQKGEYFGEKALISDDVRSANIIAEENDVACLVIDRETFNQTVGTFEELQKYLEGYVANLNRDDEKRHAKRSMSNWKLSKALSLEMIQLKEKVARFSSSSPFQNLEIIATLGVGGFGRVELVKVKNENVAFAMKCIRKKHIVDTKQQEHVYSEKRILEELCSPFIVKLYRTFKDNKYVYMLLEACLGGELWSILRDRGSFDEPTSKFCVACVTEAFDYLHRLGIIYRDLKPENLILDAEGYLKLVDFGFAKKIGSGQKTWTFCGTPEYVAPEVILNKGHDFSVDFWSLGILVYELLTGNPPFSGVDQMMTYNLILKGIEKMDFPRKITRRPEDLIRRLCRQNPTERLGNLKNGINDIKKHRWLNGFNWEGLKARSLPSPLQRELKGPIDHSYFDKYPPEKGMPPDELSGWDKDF

[7] = target: kinases (KINOMEscan panel) (Homo sapiens, UniProt Q9BYP7); settings: Published KINOMEscan; ref original PKIS2 published data; cited from earlier work
[8] = target: T3, kinases (KINOMEscan panel) (Homo sapiens, UniProt Q9UBE8); settings: NLK; Published KINOMEscan; ref original PKIS2 published data; cited from earlier work
T3 sequence (Q9UBE8 1-527): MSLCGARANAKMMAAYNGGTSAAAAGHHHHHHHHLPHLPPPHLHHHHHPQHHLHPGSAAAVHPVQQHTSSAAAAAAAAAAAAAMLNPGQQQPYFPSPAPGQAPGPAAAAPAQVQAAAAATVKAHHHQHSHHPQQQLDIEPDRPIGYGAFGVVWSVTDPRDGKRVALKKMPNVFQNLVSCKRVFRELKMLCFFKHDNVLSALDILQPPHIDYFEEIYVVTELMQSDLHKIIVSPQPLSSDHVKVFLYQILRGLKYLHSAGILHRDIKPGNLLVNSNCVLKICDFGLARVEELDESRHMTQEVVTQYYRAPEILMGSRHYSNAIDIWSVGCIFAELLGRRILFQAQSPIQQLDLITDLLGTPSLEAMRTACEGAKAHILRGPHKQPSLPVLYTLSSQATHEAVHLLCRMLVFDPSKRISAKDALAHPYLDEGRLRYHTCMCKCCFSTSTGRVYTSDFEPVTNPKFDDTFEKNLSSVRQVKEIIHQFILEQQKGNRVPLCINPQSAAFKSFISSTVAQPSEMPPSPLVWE

Chain of kinases (KINOMEscan panel) (Homo sapiens, UniProt O00750) (O00750 whole entry): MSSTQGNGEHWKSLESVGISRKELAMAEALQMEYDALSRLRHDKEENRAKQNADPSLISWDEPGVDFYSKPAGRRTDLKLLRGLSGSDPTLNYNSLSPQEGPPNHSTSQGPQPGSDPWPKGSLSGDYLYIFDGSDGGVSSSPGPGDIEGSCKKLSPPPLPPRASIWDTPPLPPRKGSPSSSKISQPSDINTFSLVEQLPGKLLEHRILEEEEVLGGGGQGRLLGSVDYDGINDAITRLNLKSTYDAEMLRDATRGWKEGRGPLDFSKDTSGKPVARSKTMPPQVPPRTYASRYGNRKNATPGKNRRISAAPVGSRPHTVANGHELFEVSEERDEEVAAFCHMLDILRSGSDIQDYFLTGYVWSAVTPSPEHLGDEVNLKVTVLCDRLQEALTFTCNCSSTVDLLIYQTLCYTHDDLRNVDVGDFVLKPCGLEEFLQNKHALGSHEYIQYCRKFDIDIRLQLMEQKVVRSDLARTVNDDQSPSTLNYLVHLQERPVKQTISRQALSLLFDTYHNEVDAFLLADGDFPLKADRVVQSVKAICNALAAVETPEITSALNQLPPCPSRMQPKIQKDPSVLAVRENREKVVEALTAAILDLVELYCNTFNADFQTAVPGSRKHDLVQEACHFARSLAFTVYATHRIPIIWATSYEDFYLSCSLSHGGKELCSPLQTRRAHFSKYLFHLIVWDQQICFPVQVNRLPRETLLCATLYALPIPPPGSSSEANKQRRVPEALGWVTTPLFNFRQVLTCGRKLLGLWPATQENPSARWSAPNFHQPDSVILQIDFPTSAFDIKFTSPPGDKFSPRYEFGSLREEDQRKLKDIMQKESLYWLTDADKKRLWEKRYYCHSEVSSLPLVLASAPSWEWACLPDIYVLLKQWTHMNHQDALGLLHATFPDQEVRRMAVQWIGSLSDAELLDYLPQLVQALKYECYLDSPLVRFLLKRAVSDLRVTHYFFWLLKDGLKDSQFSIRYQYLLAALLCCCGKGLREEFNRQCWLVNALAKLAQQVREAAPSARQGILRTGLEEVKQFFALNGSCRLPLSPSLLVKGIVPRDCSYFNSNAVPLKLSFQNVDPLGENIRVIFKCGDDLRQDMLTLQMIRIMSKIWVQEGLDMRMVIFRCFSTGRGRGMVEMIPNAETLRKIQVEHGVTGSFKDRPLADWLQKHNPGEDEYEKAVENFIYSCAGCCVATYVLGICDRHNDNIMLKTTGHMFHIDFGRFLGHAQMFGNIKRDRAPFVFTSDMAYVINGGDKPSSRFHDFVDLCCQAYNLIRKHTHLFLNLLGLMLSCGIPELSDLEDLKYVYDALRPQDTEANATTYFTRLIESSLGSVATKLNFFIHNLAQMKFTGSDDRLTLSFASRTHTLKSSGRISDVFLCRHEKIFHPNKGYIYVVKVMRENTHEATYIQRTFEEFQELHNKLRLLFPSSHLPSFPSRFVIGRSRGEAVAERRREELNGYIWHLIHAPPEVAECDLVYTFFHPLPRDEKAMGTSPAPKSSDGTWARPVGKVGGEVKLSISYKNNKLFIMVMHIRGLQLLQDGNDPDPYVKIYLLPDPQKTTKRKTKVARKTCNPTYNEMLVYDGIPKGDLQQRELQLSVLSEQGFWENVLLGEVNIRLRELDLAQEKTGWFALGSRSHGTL
Chain of kinases (KINOMEscan panel) (Homo sapiens, UniProt P24723) (P24723 whole entry): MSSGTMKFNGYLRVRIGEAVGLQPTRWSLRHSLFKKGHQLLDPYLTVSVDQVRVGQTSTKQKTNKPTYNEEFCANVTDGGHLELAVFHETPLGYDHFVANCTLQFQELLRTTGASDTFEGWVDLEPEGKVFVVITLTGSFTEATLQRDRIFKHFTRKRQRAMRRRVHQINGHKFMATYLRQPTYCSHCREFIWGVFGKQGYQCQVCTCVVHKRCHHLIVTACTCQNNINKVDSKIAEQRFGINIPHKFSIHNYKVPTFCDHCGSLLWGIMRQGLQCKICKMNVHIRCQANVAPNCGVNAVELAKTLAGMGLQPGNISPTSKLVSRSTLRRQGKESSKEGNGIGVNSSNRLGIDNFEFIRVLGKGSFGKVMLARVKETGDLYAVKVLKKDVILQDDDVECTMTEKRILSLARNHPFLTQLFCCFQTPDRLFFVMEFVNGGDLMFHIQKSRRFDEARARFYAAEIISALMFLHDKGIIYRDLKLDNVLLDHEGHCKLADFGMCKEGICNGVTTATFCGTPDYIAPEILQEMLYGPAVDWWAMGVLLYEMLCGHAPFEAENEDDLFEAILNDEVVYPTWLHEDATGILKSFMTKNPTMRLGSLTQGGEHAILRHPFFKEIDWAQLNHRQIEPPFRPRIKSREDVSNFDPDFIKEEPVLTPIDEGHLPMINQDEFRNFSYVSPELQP
Chain of kinases (KINOMEscan panel) (Homo sapiens, UniProt O96013) (O96013 whole entry): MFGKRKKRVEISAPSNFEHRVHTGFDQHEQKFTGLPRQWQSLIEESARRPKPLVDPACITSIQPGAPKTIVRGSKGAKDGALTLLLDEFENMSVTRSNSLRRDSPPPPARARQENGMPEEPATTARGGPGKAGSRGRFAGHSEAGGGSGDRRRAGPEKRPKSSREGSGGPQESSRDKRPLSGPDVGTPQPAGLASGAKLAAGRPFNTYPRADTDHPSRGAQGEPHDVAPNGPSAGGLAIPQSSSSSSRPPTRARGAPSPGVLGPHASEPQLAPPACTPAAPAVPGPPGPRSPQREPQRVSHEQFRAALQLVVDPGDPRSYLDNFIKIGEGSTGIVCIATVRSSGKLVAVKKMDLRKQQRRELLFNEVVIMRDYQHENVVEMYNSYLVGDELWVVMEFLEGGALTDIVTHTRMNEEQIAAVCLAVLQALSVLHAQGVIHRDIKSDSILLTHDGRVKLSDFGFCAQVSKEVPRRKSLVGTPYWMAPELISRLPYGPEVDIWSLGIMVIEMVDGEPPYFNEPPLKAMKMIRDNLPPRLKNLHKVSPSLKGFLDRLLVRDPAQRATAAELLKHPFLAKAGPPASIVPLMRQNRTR
Chain of kinases (KINOMEscan panel) (Homo sapiens, UniProt Q9BYP7) (Q9BYP7 whole entry): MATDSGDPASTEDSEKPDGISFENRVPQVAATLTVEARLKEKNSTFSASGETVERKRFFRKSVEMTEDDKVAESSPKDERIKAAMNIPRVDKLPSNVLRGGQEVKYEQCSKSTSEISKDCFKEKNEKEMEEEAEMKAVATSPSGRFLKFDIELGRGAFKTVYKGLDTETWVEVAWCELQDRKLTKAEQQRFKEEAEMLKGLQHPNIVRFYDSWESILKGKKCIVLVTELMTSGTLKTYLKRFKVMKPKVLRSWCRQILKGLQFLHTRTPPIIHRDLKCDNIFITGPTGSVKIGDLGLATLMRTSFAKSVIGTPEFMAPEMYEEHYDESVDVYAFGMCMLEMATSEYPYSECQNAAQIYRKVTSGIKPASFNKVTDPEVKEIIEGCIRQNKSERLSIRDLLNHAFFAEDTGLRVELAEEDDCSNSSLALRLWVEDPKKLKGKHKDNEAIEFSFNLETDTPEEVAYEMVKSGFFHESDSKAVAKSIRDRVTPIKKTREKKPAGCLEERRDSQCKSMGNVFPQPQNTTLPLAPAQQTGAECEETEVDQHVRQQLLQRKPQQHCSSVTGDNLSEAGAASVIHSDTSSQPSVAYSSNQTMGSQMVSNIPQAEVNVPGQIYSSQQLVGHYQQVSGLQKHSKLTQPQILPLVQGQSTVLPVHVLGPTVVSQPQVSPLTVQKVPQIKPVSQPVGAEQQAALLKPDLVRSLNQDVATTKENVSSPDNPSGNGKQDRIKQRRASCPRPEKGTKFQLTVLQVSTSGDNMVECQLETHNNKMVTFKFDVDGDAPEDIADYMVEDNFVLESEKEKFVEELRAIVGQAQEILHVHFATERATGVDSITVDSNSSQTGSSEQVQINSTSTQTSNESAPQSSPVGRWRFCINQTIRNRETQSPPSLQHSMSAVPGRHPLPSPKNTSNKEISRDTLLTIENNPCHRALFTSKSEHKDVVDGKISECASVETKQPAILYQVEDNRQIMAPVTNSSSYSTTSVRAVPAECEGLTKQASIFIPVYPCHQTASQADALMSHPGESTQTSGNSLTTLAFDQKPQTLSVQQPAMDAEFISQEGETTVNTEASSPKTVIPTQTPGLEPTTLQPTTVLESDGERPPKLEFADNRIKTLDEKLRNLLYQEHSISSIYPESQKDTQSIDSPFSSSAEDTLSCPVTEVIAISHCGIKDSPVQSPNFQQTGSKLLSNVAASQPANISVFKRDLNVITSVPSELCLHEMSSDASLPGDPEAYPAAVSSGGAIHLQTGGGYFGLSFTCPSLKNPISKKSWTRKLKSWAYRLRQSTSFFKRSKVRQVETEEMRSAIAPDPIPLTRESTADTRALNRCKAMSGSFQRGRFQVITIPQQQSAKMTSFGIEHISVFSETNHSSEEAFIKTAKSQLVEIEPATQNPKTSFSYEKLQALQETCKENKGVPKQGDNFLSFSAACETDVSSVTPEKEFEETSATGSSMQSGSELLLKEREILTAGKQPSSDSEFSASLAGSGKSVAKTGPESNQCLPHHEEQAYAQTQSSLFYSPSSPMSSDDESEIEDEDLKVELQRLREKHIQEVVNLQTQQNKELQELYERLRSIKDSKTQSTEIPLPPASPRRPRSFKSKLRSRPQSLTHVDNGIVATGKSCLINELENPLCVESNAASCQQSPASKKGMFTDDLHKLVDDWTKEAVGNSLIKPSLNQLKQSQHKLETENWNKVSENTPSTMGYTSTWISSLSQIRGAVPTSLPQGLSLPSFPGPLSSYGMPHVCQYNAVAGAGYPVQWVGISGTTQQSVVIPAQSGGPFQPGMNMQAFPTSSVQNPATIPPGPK

Cc1cccc(-c2nc(Nc3ccncc3)c3ccccc3n2)n1 [NK215]
0: KINOMEscan SGK1 [1] | KINOMEscan PIK3C2B [2] | KINOMEscan PAK4 [3] | KINOMEscan PRKCH [4] | KINOMEscan MST1R [5] | KINOMEscan PRKG2 [6] | KINOMEscan WNK3 [7]
47: KINOMEscan NLK [8]
